Test results: PubChem BioAssay (NCI)
Values joined by “and” are separate entries in the source; they are usually repeats but may differ in a detail not shown here. Equal entries are not always repeated.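 Grown in 96-well plates, cells were treated for 48 hours with each compound at five concentrations. Insufficient inhibition: endpoint recorded as highest concentration tested. The concentration for 50% growth inhibition is given as GI50. TGI marks complete inhibition of growth.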

Columns and labels:
Test in all cases: NCI-60 cell line screen, 48 h
[1] = tested on: A549 NSCLC
[2] = tested on: DU-145 prostate
[3] = tested on: HCT-116 colon
[4] = tested on: HS 578T breast
[5] = tested on: KM12 colon
[6] = tested on: NCI-H460 lung
[7] = tested on: NCI-H522 lung
[8] = tested on: NCI/ADR-RES ovarian
[9] = tested on: SNB-75 CNS
[10] = tested on: T-47D breast

Compound | TGI [1] | TGI [2] | TGI [3] | TGI [4] | TGI [5] | TGI [6] | TGI [7] | TGI [8] | TGI [9] | TGI [10] | GI50 [6]
CCC1(c2ccc(N3C(=O)c4cccc5cc([N+](=O)[O-])cc(c45)C3=O)cc2)CCC(=O)NC1=O (stereo unspecified) | > 100 µM | > 69.2 µM | 21.6 µM | 64.4 µM | > 100 µM | > 50 µM | 35.1 µM | 79.8 µM | 68 µM | > 100 µM | 
C[C@]12CC[C@H]3[C@@H](CC=C4C[C@@H](N5CCCC5)CC[C@@]43C)[C@@H]1C[C@H](N1CCCCC1)[C@@H]2O | > 100 µM | > 100 µM | > 100 µM | > 100 µM | > 100 µM | > 100 µM | > 100 µM | > 100 µM | > 100 µM | > 100 µM | 
O=C(O)C(Cc1ccccc1)NCc1c(O)ccc2c(-c3ccccc3)cc(=O)oc12 (stereo unspecified) | > 100 µM | > 100 µM | > 100 µM | > 100 µM | > 100 µM | > 100 µM | > 100 µM | > 100 µM | > 100 µM | > 100 µM | 
CC(C)(C)C1CCC2c3c([nH]c4ccccc34)C3C(=O)N(c4ccc([N+](=O)[O-])cc4)C(=O)C3C2C1 (stereo unspecified) | 62.1 µM | > 100 µM | 22.6 µM | 39.3 µM | 35.7 µM | > 100 µM | 40.8 µM | 41 µM | 38.4 µM | > 100 µM | 
O=C1NC(O)c2cc3ccccc3cc2O1 (stereo unspecified) | > 100 µM | > 100 µM | 51.1 µM | > 100 µM | > 100 µM | > 100 µM | > 100 µM | > 100 µM | > 100 µM | > 100 µM | 
C=C1c2nc3ccccc3n2C=C(c2ccc(C)cc2)N1c1ccc(OC)cc1 | > 100 µM | > 100 µM | > 100 µM | > 100 µM | 63.3 µM | > 100 µM | > 77.7 µM | > 94.8 µM | > 100 µM | > 100 µM | 
COC(=O)C1OC(O[C@H]2CC[C@]3(C)[C@H]4CC=C5[C@@H]6CC(C)(C)CC[C@]6(C(=O)OC6OCC(O)C(O)C6OC6OC(C)C(OC7OCC(O)C(O)C7O)C(O)C6O)[C@H](O)C[C@@]5(C)[C@]4(C)CC[C@H]3C2(C)C)C(O)C(O)C1O (stereo partly specified) | 11.8 µM and 14.6 µM | > 57.7 µM and 26.5 µM | > 100 µM and 17.4 µM | 35.9 µM and 35.2 µM | 13.1 µM and 13 µM | > 100 µM and 33.4 µM | 6.84 µM and 5.14 µM | 22.5 µM and 12.3 µM | 18.5 µM and 20.9 µM | > 100 µM and 27.2 µM | 34 µM and 16.9 µM
O=[N+]([O-])c1ccc(-n2nc3ccc4nonc4c3n2)cc1 | > 100 µM | > 100 µM | > 100 µM | 50.1 µM | > 100 µM | > 100 µM | > 100 µM | > 100 µM | 30.8 µM | > 100 µM | 
O=c1[nH]c(=O)n(COC(CO)CO)cc1-c1ccccc1 | > 100 µM | > 100 µM | > 100 µM | > 100 µM | > 100 µM | > 100 µM | > 100 µM | > 100 µM | > 100 µM | > 100 µM | 
CCOC(=O)c1c(-c2ccc(OC)cc2)ccn1C | > 10 µM | > 10 µM | > 10 µM | > 10 µM | > 10 µM | > 10 µM | > 10 µM | > 10 µM | > 10 µM | > 10 µM | 
CC1=C(C)C(=O)C(C2=CC(=O)c3ccccc3C2=O)=C(C2=CC(=O)c3ccccc3C2=O)C1=O | > 100 µM | 12.5 µM | > 100 µM | > 100 µM | 28.9 µM | 25.4 µM | 17.4 µM | > 100 µM | 31.5 µM | 45.1 µM | 
N#Cc1c(NC(=S)Nc2ccc(Cl)cc2)sc2c1CCN(N1CCc3c(sc(NC(=S)Nc4ccc(Cl)cc4)c3C#N)C1)C2 | > 100 µM | > 100 µM | > 100 µM | > 100 µM | > 100 µM | > 100 µM | > 100 µM | > 100 µM | > 100 µM | > 100 µM | 
N#CCCC(C=O)(CCC#N)CCC#N | > 100 µM | > 100 µM | > 100 µM | > 100 µM | > 100 µM | > 100 µM | > 100 µM | > 100 µM | > 100 µM | > 100 µM | 
O=C(Nc1ccccc1)N1CCN(C(=O)Nc2ccccc2)C1=S | > 100 µM | > 100 µM | > 100 µM | > 100 µM | > 100 µM | > 100 µM | > 100 µM | > 100 µM | 47.2 µM | > 100 µM | 
C/C(=N\Nc1nc2ccccc2s1)c1ccncn1 | > 35 µM | > 66.1 µM | 16.3 µM | 26.2 µM | 16.6 µM | 14.9 µM | 2.05 µM | 1.67 µM | 24.4 µM | > 100 µM | 
C=C(C)C1CC(=O)C(C)=C(O)C1 (stereo unspecified) | > 100 µM | > 100 µM | > 100 µM | > 100 µM | > 100 µM | > 100 µM | > 100 µM | > 100 µM | > 100 µM | > 100 µM | 
